From PMC3157426 (PLoS ONE, 2011)
Several values for one entry are separate records, joined by “and”; a condition that tells them apart may be missing. Equal entries are not always repeated. Where two headings read alike, the source gives them in different places.

Assays:
[1] = molecular target: A/Mississippi/03/01 H1N1 wild type NA (Influenza A virus, UniProt Q289M4); format: biochemical, influenza virus A/Mississippi/03/01 H1N1
[2] = molecular target: H1N1 pandemic influenza virus A/Swine/Shepparton/2009 NA (Influenza A virus, UniProt I6NQT4); test: biochemical; format: biochemical, influenza virus A/Swine/Shepparton/2009 pandemic H1N1
[3] = molecular target: clade 2 H5N1 virus from Indonesia N1 NA (Influenza A virus, UniProt Q6R2G6); format: biochemical, avian influenza H5N1 clade 2 (Indonesia)
[4] = molecular target: A/Fukui/45/04 H3N2 wild type NA (Influenza A virus, UniProt C0IZY2); format: biochemical, influenza virus A/Fukui/45/04 H3N2
[5] = molecular target: clade 1 H5N1 virus from Vietnam N1 NA (Influenza A virus, UniProt Q6DPL2); format: biochemical, avian influenza H5N1 clade 1 (Vietnam)
[6] = molecular target: B/Perth/211/01 influenza B wild type NA (Influenza B virus, UniProt Q3S340); format: biochemical, influenza B virus B/Perth/211/01
N2 NA = details: cited from earlier work
[7] = read-out: IC50 at 10 min, 30' Pre
[8] = read-out: IC50 at 10 min, No pre
[9] = read-out: final IC50 after 60 min, 30' pre
[10] = read-out: final IC50 after 60 min, No pre
[11] = read-out: IC50 on relative slope, Rates time interval 30-40
[12] = read-out: IC50 on relative slope, Rates time interval 40-50
[13] = read-out: IC50 on relative slope, Rates time interval 50-60

## CC(=O)N[C@H]1[C@H]([C@H](O)[C@H](O)CO)OC(C(=O)O)=C[C@@H]1O [DANA, 2-deoxy,2,3-dehydro N-acetyl neuraminic acid]
[1]
  binding phenotype (slow or fast binding): fast binding
[2]
  binding phenotype (slow or fast binding): fast binding
[3]
  binding phenotype (slow or fast binding): fast binding
[4]
  binding phenotype (slow or fast binding): fast binding
[5]
  binding phenotype (slow or fast binding): fast binding
[6]
  binding phenotype (slow or fast binding): fast binding

## CCC(CC)[C@H](NC(C)=O)[C@@H]1[C@H](O)[C@@H](C(=O)O)C[C@H]1N=C(N)N [Peramivir, peramivir]
[1]
  10'/60 (ratio of IC50s), No pre: 6.5
  60'/10 (ratio of IC50s), 30' Pre: 1.4
  No pre/pre (ratio of 60 min IC50s): 8.2
[1]; [7]
  IC50: 0.3 nM
[1]; [8]
  IC50: 20.2 nM
[1]; [9]
  IC50: 0.4 nM
[1]; [10]
  IC50: 3.1 nM
[2]
  10'/60 (ratio of IC50s), No pre: 5.1
  60'/10 (ratio of IC50s), 30' Pre: 1.5
  No pre/pre (ratio of 60 min IC50s): 7.1
[2]; [7]
  IC50: 0.2 nM
[2]; [8]
  IC50: 10.1 nM
[2]; [9]
  IC50: 0.3 nM
[2]; [10]
  IC50: 2 nM
[3]
  10'/60 (ratio of IC50s), No pre: 7.0
  60'/10 (ratio of IC50s), 30' Pre: 1.4
  No pre/pre (ratio of 60 min IC50s): 9.3
[3]; [7]
  IC50: 0.4 nM
[3]; [8]
  IC50: 37.7 nM
[3]; [9]
  IC50: 0.6 nM
[3]; [10]
  IC50: 5.4 nM
[4]
  10'/60 (ratio of IC50s), No pre: 8.7
  60'/10 (ratio of IC50s), 30' Pre: 1.3
  No pre/pre (ratio of 60 min IC50s): 9.0
[4]; [7]
  IC50: 1 nM
[4]; [8]
  IC50: 103 nM
[4]; [9]
  IC50: 1.3 nM
[4]; [10]
  IC50: 11.9 nM
[5]
  10'/60 (ratio of IC50s), No pre: 6.6
  60'/10 (ratio of IC50s), 30' Pre: 1.3
  No pre/pre (ratio of 60 min IC50s): 21.0
[5]; [7]
  IC50: 0.2 nM
[5]; [8]
  IC50: 40.9 nM
[5]; [9]
  IC50: 0.3 nM
[5]; [10]
  IC50: 6.2 nM
[6]
  10'/60 (ratio of IC50s), No pre: 9.3
  60'/10 (ratio of IC50s), 30' Pre: 1.5
  No pre/pre (ratio of 60 min IC50s): 9.8
[6]; [7]
  IC50: 1.9 nM
[6]; [8]
  IC50: 259 nM
[6]; [9]
  IC50: 2.8 nM
[6]; [10]
  IC50: 27.8 nM

## CC(=O)N[C@H]1[C@H]([C@H](O)[C@H](O)CO)OC(C(=O)O)=C[C@@H]1N=C(N)N [Zanamivir, zanamivir]
N2 NA
  variation of the apparent Ki depending on the incubation conditions: 10,000 fold
[2]; IC50 at 10 min, 30' Pre
  IC50: 0.5 nM
[2]; IC50 at 10 min, No pre
  IC50: 29.5 nM
[2]; final IC50 after 60 min, 30' pre
  IC50: 1.4 nM
[2]; final IC50 after 60 min, No pre
  IC50: 5.8 nM

## oseltamivir carboxylate
[1]; [7]
  IC50: 0.5 nM
[1]; [8]
  IC50: 12.2 nM
[1]; read-out: IC50 on relative slope, Rates time interval 20-30
  IC50: 6.2 nM and 3.9 nM
[1]; [11]
  IC50: 6.7 nM and 4.6 nM
[1]; [12]
  IC50: 6.8 nM and 5 nM
[1]; [13]
  IC50: 7.9 nM and 5.6 nM
[1]; [9]
  IC50: 3.1 nM
[1]; [10]
  IC50: 7.3 nM
[2]; [7]
  IC50: 0.5 nM
[2]; [8]
  IC50: 15.8 nM
[2]; [9]
  IC50: 5.1 nM
[2]; [10]
  IC50: 6.8 nM
[3]; [7]
  IC50: 0.9 nM
[3]; [8]
  IC50: 28.3 nM
[3]; [9]
  IC50: 19.6 nM
[3]; [10]
  IC50: 21.4 nM
[4]
  binding phenotype (slow or fast binding): slow binding phenotype
[4]; [7]
  IC50: 0.5 nM
[4]; [8]
  IC50: 30.4 nM
[4]; [11]
  IC50: 3.8 nM and 2.5 nM
[4]; [12]
  IC50: 3.8 nM and 3.3 nM
[4]; [13]
  IC50: 3.4 nM
[4]; [9]
  IC50: 1.7 nM
[4]; [10]
  IC50: 5.3 nM
